Assay results from publication PMC10449633 (Nature Chemical Biology, 2023).
Values joined by “and” are separate entries in the source; they are usually repeats but may differ in a detail not shown here. Equal values may be shown once. Read-outs that look alike come from different tables or passages of the source. Numbered stars: 1 amine (or outer) side, 2 acyl side, 3 side chain; on linkers, the order of the positions; unused ones are H or OH. Square brackets hold non-standard residues; d marks the D form. Peptide text beside a SMILES is read from it. ξ: configuration not given here. X1 = CN(C(Cc1cn(Cc2ccc(Br)cc2)c2ccccc12)C(=O)[*:2])[*:1]; ξAla(CF3) = NC(CC(F)(F)F)C(=O)O; X2 = N#CCCC(O[*:1])C(=O)[*:2]; NMeL = CN[CH](CC(C)C)C(=O)O; NMeA = CN[CH](C)C(=O)O

Key:
human PBMCs = settings: concentrations up to 20 µM; PBMCs and splenocytes
WT Sec61α = molecular target: T1, WT Sec61α (Canis lupus familiaris, UniProt P38377); assay: GLuc secretion reporter fused to full-length IL-2 or TNF, cells stably expressing WT Sec61α; type: cell-based, canine; settings: for Sec61 WT - Hu IL2(FL) / Sec61 WT - Hu PD1(ss) / Sec61 WT - Hu TNFa(FL): replicate columns
T1 construct: expressed in transfected cells

R66I Sec61α = molecular target: T2, R66I Sec61α (Canis lupus familiaris, UniProt P38377, R66I); assay: GLuc secretion reporter fused to full-length IL-2 or TNF, cells stably expressing R66I Sec61α; type: cell-based, canine; settings: for Sec61 R66I - Hu IL2(FL) / Sec61 R66I - Hu PD1(ss) / Sec61 R66I - Hu TNFa(FL): replicate columns
T2 construct: expressed in transfected cells

Sec61α T86M = Sec61α T86M (Canis lupus familiaris, UniProt P38377, T86M); assay: Luciferase reporter assay in HEK293 cells expressing Sec61α T86M; settings: HEK293, 24 h, read-out: luciferase reporter activity (% of no-drug control), T86M
Sequence of Sec61α T86M (P60468 whole entry): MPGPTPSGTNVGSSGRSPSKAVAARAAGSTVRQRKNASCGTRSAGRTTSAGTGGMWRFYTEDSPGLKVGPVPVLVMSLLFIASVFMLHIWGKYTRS
Sequence of Sec61α T86M (P38377 whole entry T86M): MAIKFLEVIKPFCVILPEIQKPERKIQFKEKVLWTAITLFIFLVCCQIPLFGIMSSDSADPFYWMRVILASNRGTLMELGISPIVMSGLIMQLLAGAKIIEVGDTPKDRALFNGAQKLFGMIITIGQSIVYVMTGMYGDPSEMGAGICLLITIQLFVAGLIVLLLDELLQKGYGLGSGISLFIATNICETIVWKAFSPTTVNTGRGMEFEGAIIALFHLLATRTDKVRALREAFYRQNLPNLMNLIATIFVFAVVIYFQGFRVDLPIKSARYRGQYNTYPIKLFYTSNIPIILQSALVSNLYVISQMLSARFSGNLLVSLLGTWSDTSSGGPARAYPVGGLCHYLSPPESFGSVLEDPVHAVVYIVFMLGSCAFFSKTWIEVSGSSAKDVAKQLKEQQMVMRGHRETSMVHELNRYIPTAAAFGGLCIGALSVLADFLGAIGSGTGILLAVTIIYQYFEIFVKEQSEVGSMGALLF
Sequence of Sec61α T86M (P60059 whole entry, further chain): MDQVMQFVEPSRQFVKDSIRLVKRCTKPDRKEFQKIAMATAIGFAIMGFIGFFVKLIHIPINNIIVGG
Description: Data are mean values ± s.d. from n = 2 independent experiments.
HEK293T cells (0.3 × 10^6) were seeded per well of a six-well plate and incubated at 37 °C in 5% CO2 for 24 h to adhere. Each of the two wells was transfected with 1 µg of plasmid encoding a luciferase with the signal peptide of either VCAM1 or pPL using PEI in a 5:1 ratio, after which cells were returned to the incubator for a further 24 h. Transfected cells were then resuspended following trypsinization, cell count estimated using a TC20 Automated Cell Counter (BioRad) and diluted to seed a 96-well flat-bottom plate with 1.6 × 10^4 cells per well. […] Cells were then incubated for a further 24 h, after which the luciferase-containing media were transferred to a clean 96-well plate and stored at −20 °C. Luciferase activity of the media was estimated using a Gaussia-GLOW Juice Luciferase Assay kit from PJK Biotech GmbH as per the manufacturer’s instructions. Luminescence was measured using an EnSpire Multimode plate reader (PerkinElmer). Background luminescence from media placed in a well with neither cells nor drug was subtracted from all values, and measurements were calculated as a percentage of luminescence intensity of a well expressing the appropriate luciferase construct in the absence of any drug. Curves were fitted, and IC50 values were calculated using GraphPad Prism 8.
HEK293 Flp-In T-REx cells (Thermo Fisher Scientific, R78007) were cultured in Dulbecco’s modified Eagle’s medium (Gibco) supplemented with 10% FBS (Gibco) at 37 °C in a humidified 5% CO2 atmosphere. Approximately 0.3 µg of pOG44 and 1 µg of targeting construct plasmids were mixed in 250 µl of OptiMEM (Thermo Fisher Scientific, 51985-026). A total of 3 µl (3 µg) Lipofectamine3000 transfection reagent was then added to the DNA mix and incubated at room temperature for 20 min, and the whole mixture was added to the cells. Cells were exposed to 100 µg ml^−^1 hygromycin B (Invitrogen) and 10 µg ml^−^1 blasticidin for 3–4 weeks until the appearance of resistant colonies. Colonies were expanded into T75 flasks and induced with doxycycline (Sigma-Aldrich, D9891) at a concentration of 1–5 µg ml^−^1 for 48 h. Cells were collected, and total RNA was extracted followed by cDNA amplification and sequencing of Sec61 with gene-specific PCR primers to confirm. Cells were then used for the luciferase reporter assays as above.
Data are mean values ± SD and are representative of n = 2 independent experiments.

T1 sequence (P60468 whole entry, the tested form may be a part): as the sequence (P60468 whole entry) above
T1 sequence (P38377 whole entry, the tested form may be a part): as the sequence (P38377 whole entry T86M) above, with M86T counted along it
T1 sequence (P60059 whole entry, further chain, the tested form may be a part): as the sequence (P60059 whole entry, further chain) above
T2 sequence (P60468 whole entry, the tested form may be a part): as the sequence (P60468 whole entry) above
T2 sequence (P38377 whole entry R66I, the tested form may be a part): as the sequence (P38377 whole entry T86M) above, with R66I, M86T counted along it
T2 sequence (P60059 whole entry, further chain, the tested form may be a part): as the sequence (P60059 whole entry, further chain) above

CC(C)CC1NC(=O)C(Cc2cn(Cc3ccc(Br)cc3)c3ccccc23)N(C)C(=O)C(CC(F)(F)F)NC(=O)C(CC(C)C)N(C)C(=O)C(CC(F)(F)F)NC(=O)C(CCC#N)OC(=O)C(C)N(C)C1=O (stereo not drawn) [KZR-8445] (cyclo([X1]L[NMeA][X2][ξAla(CF3)][NMeL][ξAla(CF3)]); configuration not given here)
effects on cell viability (human PBMCs): minimal effects
Sec61 WT - Hu IL2(FL) (WT Sec61α; 0.32 nM): 112 and 115 and 119
Sec61 WT - Hu PD1(ss) (WT Sec61α; 0.32 nM): 120 and 121 and 116
Sec61 WT - Hu TNFa(FL) (WT Sec61α; 0.32 nM): 132 and 105 and 123
Sec61 WT - Hu IL2(FL) (WT Sec61α; 1.6 nM): 108 and 112 and 116
Sec61 WT - Hu PD1(ss) (WT Sec61α; 1.6 nM): 107 and 115 and 113
Sec61 WT - Hu TNFa(FL) (WT Sec61α; 1.6 nM): 119 and 96 and 85
Sec61 WT - Hu IL2(FL) (WT Sec61α; 8 nM): 105 and 102 and 116
Sec61 WT - Hu PD1(ss) (WT Sec61α; 8 nM): 91 and 108 and 92
Sec61 WT - Hu TNFa(FL) (WT Sec61α; 8 nM): 123 and 114 and 93
Sec61 WT - Hu IL2(FL) (WT Sec61α; 40 nM): 89 and 83 and 75
Sec61 WT - Hu PD1(ss) (WT Sec61α; 40 nM): 62 and 54 and 56
Sec61 WT - Hu TNFa(FL) (WT Sec61α; 40 nM): 81 and 75 and 70
Sec61 WT - Hu IL2(FL) (WT Sec61α; 200 nM): 57 and 37 and 42
Sec61 WT - Hu PD1(ss) (WT Sec61α; 200 nM): 18 (2×) and 19
Sec61 WT - Hu TNFa(FL) (WT Sec61α; 200 nM): 36 and 30 and 29
Sec61 WT - Hu IL2(FL) (WT Sec61α; 1000 nM): 7 and 6 (2×)
Sec61 WT - Hu PD1(ss) (WT Sec61α; 1000 nM): 2
Sec61 WT - Hu TNFa(FL) (WT Sec61α; 1000 nM): 3 (2×) and 2
Sec61 WT - Hu IL2(FL) (WT Sec61α; 5000 nM): 1 and 0 (2×)
Sec61 WT - Hu PD1(ss) (WT Sec61α; 5000 nM): 0
Sec61 WT - Hu TNFa(FL) (WT Sec61α; 5000 nM): 1 and 0 (2×)
Sec61 WT - Hu IL2(FL) (WT Sec61α; 25000 nM): 0
Sec61 WT - Hu PD1(ss) (WT Sec61α; 25000 nM): 0 (2×) and -1
Sec61 WT - Hu TNFa(FL) (WT Sec61α; 25000 nM): 1 and 0 (2×)
IC50 (WT Sec61α; 24 h, doxycycline-induced): ~100 nM
Sec61 R66I - Hu IL2(FL) (R66I Sec61α; 0.32 nM): 116 (2×) and 120
Sec61 R66I - Hu PD1(ss) (R66I Sec61α; 0.32 nM): 105 and 121 and 112
Sec61 R66I - Hu TNFa(FL) (R66I Sec61α; 0.32 nM): 121 and 138 and 116
Sec61 R66I - Hu IL2(FL) (R66I Sec61α; 1.6 nM): 105 and 113 and 110
Sec61 R66I - Hu PD1(ss) (R66I Sec61α; 1.6 nM): 120 and 103 and 107
Sec61 R66I - Hu TNFa(FL) (R66I Sec61α; 1.6 nM): 85 and 126 and 152
Sec61 R66I - Hu IL2(FL) (R66I Sec61α; 8 nM): 113 and 98 and 120
Sec61 R66I - Hu PD1(ss) (R66I Sec61α; 8 nM): 115 and 104 and 125
Sec61 R66I - Hu TNFa(FL) (R66I Sec61α; 8 nM): 118 and 113 and 150
Sec61 R66I - Hu IL2(FL) (R66I Sec61α; 40 nM): 101 and 106 and 117
Sec61 R66I - Hu PD1(ss) (R66I Sec61α; 40 nM): 115 and 120 and 121
Sec61 R66I - Hu TNFa(FL) (R66I Sec61α; 40 nM): 103 and 123 and 141
Sec61 R66I - Hu IL2(FL) (R66I Sec61α; 200 nM): 106 and 96 and 94
Sec61 R66I - Hu PD1(ss) (R66I Sec61α; 200 nM): 88 and 107 and 86
Sec61 R66I - Hu TNFa(FL) (R66I Sec61α; 200 nM): 88 and 105 and 111
Sec61 R66I - Hu IL2(FL) (R66I Sec61α; 1000 nM): 79 and 90 and 87
Sec61 R66I - Hu PD1(ss) (R66I Sec61α; 1000 nM): 68 and 64 and 75
Sec61 R66I - Hu TNFa(FL) (R66I Sec61α; 1000 nM): 82 (2×) and 71
Sec61 R66I - Hu IL2(FL) (R66I Sec61α; 5000 nM): 83 and 76 and 88
Sec61 R66I - Hu PD1(ss) (R66I Sec61α; 5000 nM): 52 and 49 (2×)
Sec61 R66I - Hu TNFa(FL) (R66I Sec61α; 5000 nM): 73 and 85 and 77
Sec61 R66I - Hu IL2(FL) (R66I Sec61α; 25000 nM): 89 and 88 and 72
Sec61 R66I - Hu PD1(ss) (R66I Sec61α; 25000 nM): 48 (2×) and 40
Sec61 R66I - Hu TNFa(FL) (R66I Sec61α; 25000 nM): 70 and 78 and 77
block of secretion of both GLuc reporter constructs in R66I cells (R66I Sec61α; IL-2 and TNFα GLuc, versus WT Sec61α): reduced
remaining activity at 0.00018303 µM (Sec61α T86M; Drug nM (log10) 0.18303): 84.6%
remaining activity at 0.000660151 µM (Sec61α T86M; Drug nM (log10) 0.660151): 76%
remaining activity at 0.00113727 µM (Sec61α T86M; Drug nM (log10) 1.13727): 53.5%
remaining activity (Sec61α T86M; Drug nM (log10) 1.61439): 28.5%
remaining activity (Sec61α T86M; Drug nM (log10) 2.09151): 12.1%
remaining activity (Sec61α T86M; Drug nM (log10) 2.56864): 5.08%
